This is an account of results in patent US6395467B1 (priority 1998, dated 2002).

Some results are limits rather than exact numbers.

Data set [1] in a line: Glass-forming tendency: concentration needed to vitrify (Cv), Q and qv*. Type of data set: physicochemical. The following applies: for Moles of water/mole of CPA (10/Q): pure CPA at Cv; for qv* (Moles of water/mole of polar groups at Cv): pure CPA, Table 1. From the text: The qv* method for identifying useful cryoprotectant solutions based on this concentration scale is: to select at least one cryoprotectant whose qv* is below 2.0, include it in a mixture with other cryoprotectants, determine the Cv of the resulting mixture in the normal way (see, for example, Fahy et al, Cryobiology 21: 407-426, 1984), calculate q* at Cv (qv*) (note: the number of moles of water can be readily determined from the weight of a given volume of solution minus the number of grams of all solutes, i.e., from the number of grams of water per unit volume or per unit weight), compare the resulting qv* value to the qv* values of alternative cryoprotectant solutions, and selecting lower qv* value solutions in general preference to higher qv* solutions. qv* values can be estimated adequately from published Q values by estimating that the densities of all solution components as pure substances are unchanged by being in solution with other substances (the validity of a similar approach in deriving Q from % w/v concentrations is discussed in Fahy, in: Low Temperature Biotechnology: Emerging Applications and Engineering Contributions, J.J. McGrath and K. R. Diller, eds, ASME, 1988, pp. 113146.)
“Cv” is the concentration needed to vitrify 5-10 ml of solution at a cooling rate of about 10° C./min.
“qv*=[(#moles of water)/(mole]/[(# polar groups)/(mole cryoprotectant)] or
qv*=(#moles of water per unit volume or per unit mass of solution)/(# moles of polar groups on penetrating cryoprotectants per unit volume or unit mass of solution) at Cv”.

The conditions of data set [2]: cited from earlier work; for Q (moles of CPA per 10 moles of water): pure CPA at Cv.
A further data set has as its system rabbit kidney slices. In words: Freezing of rabbit kidney slices to −130° C., K/Na ratio after freezing and thawing. Type of data set: cell-based. The following applies: 30% w/v cryoprotectant, frozen to −130° C. The protocol: A recent freezing experiment compared freezing of rabbit kidney slices to −130° C. in the presence of either 30% w/v DMSO or 30% w/v Veg solutes. The K/Na ratio after freezing and thawing in DMSO was 2.46+/−0.30, whereas the K/Na ratio after freezing and thawing in 30% w/v Veg solutes was 3.10+/−0.07 (p<0.05).

In a further data set the test system is rat hepatocytes. Briefly: Rat hepatocytes in suspension, trypan blue dye exclusion after cryoprotectant exposure or freezing to −140° C. The settings on record: 10% v/v. Type of data set: cell-based. The protocol: A recent freezing experiment compared freezing of rat hepatocytes in suspension to −140° C. in the presence of either 10% v/v DMSO or 10% v/v Veg solutes. Relative to the initial viability, 98% of the Veg-treated, non-frozen hepatocytes were able to exclude trypan blue dye, whereas only 70% of the DMSO-treated, non-frozen hepatocytes retained their dye exclusion capability after addition and removal of DMSO alone. After freezing and thawing, 65% of the initial number of freshly isolated hepatocytes remained capable of excluding trypan blue dye, whereas only 60% of frozen-thawed hepatocytes retained this ability when frozen with DMSO.

The subject of data set [3] is rabbit renal cortical slices. In words: Toxicity of cryoprotectant solutions to rabbit renal cortical slices (K/Na ratio after exposure, washout and 90 min at 25° C.). Type of data set: cell-based. The text has this:
FIGS. 1 and 2 display a reanalysis (performed in early July of 1998) of public information (Fahy, Levy, and Ali, Cryobiology 24: 196213, 1987) on the toxicity of several vitrification solutions of known composition. These vitrification solutions will vitrify at 1,000 atmospheres and contain either 6% polyvinyl pyrrolidone of relative molecular mass 40 kDa [PVP K30] or 6% polyethylene glycol [PEG 8000]. The data set is advantageous because all solutions analyzed are vitrifiable, the data set has low standard errors, and toxicity was convincingly dissociated from osmotic factors (see Fahy, Levy, and Ali, 1987, for discussion). In this example, viability was defined by the ratio of primarily intracellular potassium to intracellular sodium (K/Na ratio) after cryoprotectant washout and active metabolism for 90 min at the optimum temperature of 25° C. The test system was rabbit renal cortical slices.
[…] Each step is 20 min except for 1X step, which is 40 min. All steps done at 0° C.

The next data set deals with Human sperm. In words: Human sperm freezing and thawing, motility. The following applies: 2 M, cryoprotectant not removed. Type of data set: cell-based. The procedure:
Human sperm was exposed to 2 M Veg solutes or 2 M glycerol near 0° C. using gradual addition methods, then frozen, thawed, and videotaped without removing the cryoprotectant.

Regarding `CC(O)CO` (centres unmarked) [1,2-propanediol], the “qv*” value in data set [1] (pure agent, b117) is given as “about 2.6”.
On to `O=C(CO)CO` [1,3-dihydroxyacetone], for which, in data set [1], the “Moles of water/mole of CPA (10/Q)” value is 5 and the “qv* (Moles of water/mole of polar groups at Cv)” value is 1.7.
`OCCCO` [1,3-propanediol]: the “Q (moles of CPA per 10 moles of water)” value in data set [2] is reported as 3.1 moles of CPA per 10 moles of water. Also, in data set [1], the “Moles of water/mole of CPA (10/Q)” value was 3.2 and the “qv* (Moles of water/mole of polar groups at Cv)” value was found to be 1.6.
With `CC(N)=O` [Acetamide], in data set [2], the “Q (moles of CPA per 10 moles of water)” value is 4.1 moles of CPA per 10 moles of water. For the same compound, in data set [1], the “Moles of water/mole of CPA (10/Q)” value is 2.4 and the “qv* (Moles of water/mole of polar groups at Cv)” value is given as 1.2.
With `CC(=O)CO` [Acetol, hydroxyacetone], the “Q (moles of CPA per 10 moles of water)” value in data set [2] is listed as 3.6 moles of CPA per 10 moles of water. In data set [1], the “Moles of water/mole of CPA (10/Q)” value is given as 2.8 and the “qv* (Moles of water/mole of polar groups at Cv)” value is 1.4.
As to `C[S+](C)[O-]` [DMSO, dimethyl sulfoxide], in the data set with rabbit kidney slices, the “K/Na ratio after freezing and thawing” value was 2.46+/−0.30. Also, the “hepatocytes capable of excluding trypan blue dye, of the initial number of freshly isolated hepatocytes” value in the data set on rat hepatocytes (after freezing to −140° C. and thawing) stood at 60%. Moreover, the “hepatocytes able to exclude trypan blue dye, relative to the initial viability” value in the data set with rat hepatocytes (non-frozen, after addition and removal) is 70%.
Take `OCCO` [Ethylene glycol]: in data set [3] (at Cv, EuroCollins vehicle), the “recovery (viability, FIG. 3)” value is given as “less than 50%”. The “concentrations not overtly harmful” value in data set [3] (in D(1)F-EG mixtures) is listed as not above 30 % w/v. Besides, in data set [2], the “Q (moles of CPA per 10 moles of water)” value is reported as 3.3 moles of CPA per 10 moles of water. In addition, in data set [1], the “Moles of water/mole of CPA (10/Q)” value was found to be 3.0 and the “qv* (Moles of water/mole of polar groups at Cv)” value turned out to be 1.4.
For the compound `CNC=O` [N-Methyl-Formamide], the “Q (moles of CPA per 10 moles of water)” value in data set [2] is on record as 3.9 moles of CPA per 10 moles of water. Moreover, in data set [1], the “Moles of water/mole of CPA (10/Q)” value was 2.6 and the “qv* (Moles of water/mole of polar groups at Cv)” value stood at 1.3.
Take `NC=O` [formamide]: the “maximum concentration associated with minimal injury” value in data set [3] (in D(1)F-EG mixtures, 57-58% w/v total) was “about 14%”. Further, in data set [2] (agent alone), the “vitrification of aqueous solutions” value was “do not vitrify”.
Turning to `OCC(O)CO` [glycerol], the “sperm motility after freezing and thawing” value in the data set on Human sperm is on record as “largely quiescent upon thawing”.
